The values below come from PubChem BioAssay (NCI).

Test systems include MALME-3M melanoma; PC-3 prostate; RXF 393 renal; HS 578T breast; HCT-116 colon; SK-MEL-2 melanoma; SF-268 CNS; CCRF-CEM leukemia; HCC-2998 colon; CAKI-1 renal.
Assay in all cases: NCI tumour cell line growth inhibition, 48 h

Molecules are shown by their SMILES.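 Each compound was tested at five concentrations against cells in 96-well plates for 48 hours. GI50 = concentration required for 50% inhibition of growth. At the TGI there is no net growth.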 Bounds are passed on as bounds.

In the case of `Clc1ccc2c(NCCCNCc3ccc4c(c3)OCO4)ccnc2c1`, the GI50 in the assay with MALME-3M melanoma was 1.86 µM; with PC-3 prostate, 4.08 µM; in the assay with RXF 393 renal it was 1.87 µM; with HS 578T breast, 2.99 µM; with HCT-116 colon, 2.03 µM; with SK-MEL-2 melanoma, 2.03 µM. The results for the GI50 with SF-268 CNS, in the assay on CCRF-CEM leukemia and in the assay on HCC-2998 colon were 3.12 µM, 4.62 µM and 2.03 µM, respectively. For the same compound, the TGI with MALME-3M melanoma was found to be 3.48 µM; in the assay on PC-3 prostate it was 17.2 µM; in the assay with RXF 393 renal it was 5.07 µM; in the assay on HS 578T breast it was 11.1 µM; in the assay on HCT-116 colon, 8.82 µM; with SK-MEL-2 melanoma, 4.56 µM. The TGI in the assay with SF-268 CNS stood at 12.7 µM; in the assay on CCRF-CEM leukemia, 19.3 µM; in the assay on HCC-2998 colon it was 5.25 µM.
For the compound `C=C(C=O)[C@@H]1CC=C(C=O)CC1`, the GI50 is 4.39 µM with MALME-3M melanoma; 4.12 µM in the assay with PC-3 prostate; 3.72 µM with RXF 393 renal; 29.1 µM with CAKI-1 renal; 3.36 µM in the assay on HS 578T breast; 25.6 µM with SK-MEL-2 melanoma. Also, the values for the GI50 in the assay with SF-268 CNS and in the assay with HCC-2998 colon were 2.94 µM and 11.2 µM, respectively. The TGI in the assay with MALME-3M melanoma is greater than 26 µM; with PC-3 prostate, 24.2 µM; with RXF 393 renal, greater than 100 µM; with CAKI-1 renal, greater than 100 µM; with HS 578T breast, 42.4 µM; with SK-MEL-2 melanoma it was 92.5 µM. Also, the TGI was determined as 16.1 µM in the assay on SF-268 CNS and 93.5 µM in the assay with HCC-2998 colon.
For `COc1cc(-c2cc(C(=O)N3CCN(C(=O)c4ccccc4NCc4cccs4)CC3)nc3cc(-c4ccccc4)nn23)cc(OC)c1OC`, the GI50 was greater than 100 µM in the assay with MALME-3M melanoma; 4.18 µM in the assay with PC-3 prostate; 2.45 µM in the assay with RXF 393 renal; 2.78 µM in the assay with CAKI-1 renal; 36.2 µM in the assay with HS 578T breast; 4.49 µM with HCT-116 colon. Moreover, the GI50 was 3.73 µM in the assay on SK-MEL-2 melanoma, 5.93 µM with SF-268 CNS and 14.3 µM with HCC-2998 colon. Further, the TGI in the assay on MALME-3M melanoma was greater than 100 µM; with PC-3 prostate it was greater than 100 µM; in the assay on RXF 393 renal it was 8.01 µM; with CAKI-1 renal, 8.33 µM; in the assay on HS 578T breast it was greater than 100 µM; in the assay on HCT-116 colon, greater than 100 µM. Moreover, the TGI in the assay on SK-MEL-2 melanoma is 15.6 µM; in the assay with SF-268 CNS, greater than 100 µM; in the assay with HCC-2998 colon it was greater than 100 µM.
Consider `Nc1nc(N)c(N=Nc2ccc([As](=O)(O)O)c(O)c2)c(N)n1`, for which the TGI is greater than 100 µM in the assay with MALME-3M melanoma; greater than 100 µM in the assay on PC-3 prostate; greater than 29.8 µM in the assay on RXF 393 renal; greater than 100 µM in the assay on CAKI-1 renal; greater than 77.3 µM with HS 578T breast; greater than 33.7 µM in the assay on HCT-116 colon. Besides, the TGI is greater than 59.9 µM with SK-MEL-2 melanoma, greater than 100 µM in the assay on SF-268 CNS and greater than 19.7 µM in the assay on CCRF-CEM leukemia.
On to `CN(CC(=O)O)Cc1c[nH]c2ccccc12`, for which the TGI in the assay on MALME-3M melanoma, in the assay on PC-3 prostate, with RXF 393 renal, in the assay on CAKI-1 renal, with HS 578T breast and in the assay on HCT-116 colon was greater than 100 µM each time. In addition, the TGI in the assay on SK-MEL-2 melanoma, in the assay with SF-268 CNS and in the assay with CCRF-CEM leukemia was greater than 100 µM in each case.
For `COc1ccc(S(=O)(=O)Nc2c(/C=C\c3cc(OC)c(OC)c(OC)c3)ccc(OC)c2O)cc1OC`, the GI50 is greater than 100 µM in the assay on MALME-3M melanoma; 0.244 µM in the assay on PC-3 prostate; 1.01 µM in the assay on CAKI-1 renal; 0.251 µM in the assay on HS 578T breast; 0.171 µM with HCT-116 colon; 2.05 µM in the assay with SK-MEL-2 melanoma. The GI50 with SF-268 CNS was 1.29 µM; with CCRF-CEM leukemia, 0.125 µM; in the assay on HCC-2998 colon, 0.306 µM. Also, the TGI in the assay with MALME-3M melanoma, in the assay with PC-3 prostate, in the assay on CAKI-1 renal, in the assay on HS 578T breast, in the assay with HCT-116 colon and with SK-MEL-2 melanoma was greater than 100 µM throughout. The TGI in the assay on SF-268 CNS is greater than 100 µM; in the assay with CCRF-CEM leukemia, greater than 100 µM; in the assay with HCC-2998 colon it was 5.57 µM.
With `COc1ccc(/C=N/C2=C(C#N)C(c3ccccc3)c3ccc4ccccc4c3O2)cc1` (stereo not given), the TGI with MALME-3M melanoma was greater than 100 µM; in the assay on PC-3 prostate, greater than 100 µM; in the assay on CAKI-1 renal, greater than 61.8 µM; in the assay on HS 578T breast, greater than 100 µM; in the assay on HCT-116 colon, greater than 37.8 µM; with SK-MEL-2 melanoma, greater than 100 µM. Further, the TGI with SF-268 CNS was greater than 100 µM; in the assay with CCRF-CEM leukemia it was greater than 100 µM; in the assay on HCC-2998 colon, greater than 42 µM. Also, the GI50 in the assay with PC-3 prostate was 0.393 µM; with CAKI-1 renal it was 0.224 µM; in the assay on HS 578T breast, 0.279 µM; with HCT-116 colon it was 0.402 µM; in the assay on SK-MEL-2 melanoma, 0.545 µM; in the assay on SF-268 CNS, 1.65 µM. For the same compound, the GI50 was 0.377 µM in the assay on CCRF-CEM leukemia and 0.92 µM with HCC-2998 colon.
For `COC(=O)/C=C/c1cc(OC)c2c(c1)[C@@H](C(=O)OC)[C@H](c1ccc(OC)c(OC)c1)O2`, the GI50 was greater than 100 µM with MALME-3M melanoma; 2.11 µM in the assay on PC-3 prostate; 1.7 µM in the assay with HS 578T breast; 0.528 µM with HCT-116 colon; 2.8 µM in the assay on SK-MEL-2 melanoma; 2.91 µM with SF-268 CNS. Further, the GI50 in the assay with CCRF-CEM leukemia was 0.983 µM; in the assay on HCC-2998 colon it was 3.35 µM. Moreover, the TGI in the assay with MALME-3M melanoma, in the assay on PC-3 prostate, in the assay on HS 578T breast, in the assay with HCT-116 colon, in the assay on SK-MEL-2 melanoma and in the assay with SF-268 CNS was greater than 100 µM each time. In addition, the TGI in the assay with CCRF-CEM leukemia and with HCC-2998 colon was greater than 100 µM in each case.
Turning to `COc1cc(C2C(Cl)C(=O)N2NC(=O)c2ccccc2O)cc(OC)c1OC` (stereo not given), the TGI in the assay on PC-3 prostate, in the assay with RXF 393 renal, with HS 578T breast, with SF-268 CNS and in the assay on CCRF-CEM leukemia was greater than 10 µM throughout.
For the compound `COC(=O)c1cccc(COc2ccc([N+](=O)[O-])cc2Cl)c1`, the TGI with MALME-3M melanoma, in the assay on PC-3 prostate, in the assay with RXF 393 renal, with CAKI-1 renal, in the assay with HS 578T breast and in the assay with HCT-116 colon was greater than 100 µM throughout. Further, the TGI in the assay with SK-MEL-2 melanoma, in the assay with SF-268 CNS and in the assay with CCRF-CEM leukemia was greater than 100 µM each time.
